# Results published in patent publication US11306117B2, “Whitening composition containing novel quercetin-based compound” (AMOREPACIFIC CORPORATION, priority 2017, dated 2022).
# Legend:
# mushroom tyrosinase = assay: Inhibition of tyrosinase activity; assay type: biochemical; conditions: L-tyrosine, 37° C., 20 minutes, absorbance 490 nm
# Experimental: The effect of New Materials 31 and 32 on inhibiting tyrosinase activity was evaluated.
# Specifically, tyrosinase and tyrosine derived from mushroom were obtained from Sigma Chemical. Together with 150 μl of 0.1 M phosphate buffer (pH 6.5), 8 μl of mushroom tyrosinase (2,100 unit/ml) and 0.05 M concentration of L-tyrosine, arbutin and New Materials 31 and 32 were treated at the concentrations of following Table 3, respectively. The tyrosinase activity was evaluated by performing the enzyme reaction at 37° C. for 20 minutes and then measuring absorbance at 490 nm using a microplate reader (Bio-Rad 3550, Richmond, Calif., U.S.A.).
# Mel-Ab cell line = assay: Inhibition of melanogenesis in Mel-Ab cells (method of Dooley); assay type: cell-based, C57BL/6; conditions: melanin by absorbance at 400 nm after 5 days
# Experimental: The effects of New Materials 31 and 32 on inhibiting melanogenesis were compared with Kojic acids which have been known to have an excellent skin whitening effect, and measured.
# Specifically, the degree of melanogenesis in cells was measured by a method of Dooley. As the cell line, Mel-Ab cell line (Falcon, U.S.A.) derived from a skin pigment of C57BL/6 was used. Culturing was made under the condition of 37° C., 5% CO2 of a DMEM medium containing 10% placenta serum, 100 nM 12-O-tetradecanoylphorbol-13-acetate, and 1 nM Cholera Toxin. The test materials were treated in the manner where the cultured Mel-Ab cell was isolated with 0.25% trypsin-EDTA, and inoculated again with the same number (1×10^5 cells/well) in the 24-well plate, and then the medium was replaced with a medium containing the test materials for two days from the second day. As the test materials, 5 ppm, 10 ppm, 25 ppm and 50 ppm of New Materials 31 and 32, 25 ppm, 50 ppm and 100 ppm of Kojic acids and DMSO (control) were used. After 5 days, the test materials were treated with 1N-NaOH to dissolve melanin contained in the cell, and the amount of melanin was measured by measuring absorbance at 400 nm. The concentration (IC50) of the material necessary for reducing melanogenesis of melanocyte by half was calculated, and the results are shown in following Table 4.
Compound,IC50 inhibiting tyrosinase activity (mushroom tyrosinase) [ppm],IC50 inhibiting melanogenesis (Mel-Ab cell line) [ppm]
"OC[C@H]1O[C@@H](Oc2ccc(O)cc2)[C@H](O)[C@@H](O)[C@@H]1O [Arbutin, arbutin, reference compound]",149,
"O=c1cc(CO)occ1O [Kojic acids, reference compound]",,39.36
